A value given as a limit tells only on which side of the number the result lay.

From BindingDB's records for doi:10.1021/jm060189a (Abbott Laboratories, 2006) come the findings set out here.

This assay deals with Adenosine kinase (Rattus norvegicus, UniProt Q64640). Kind of assay: ADK Inhibition Assay. Particulars: pH 7.5; 23 °C. The procedure:
ADK activity was monitored by a radiochemical assay, which measures the conversion of radioactive Ado ([U-14C] adenosine or [2-3H] adenosine) to AMP in the presence of ATP and MgCl2. The radioactivity incorporated was directly proportional to the conversion rate. The reaction was terminated by aliquoting the reaction mixture onto DE-81 anion exchange filter disks. The filter disks were then dried, washed, and counted. Bound radioactivity was determined by standard scintillation spectrometry at an efficiency of 55%.

Chain of Adenosine kinase (Q64640 whole entry): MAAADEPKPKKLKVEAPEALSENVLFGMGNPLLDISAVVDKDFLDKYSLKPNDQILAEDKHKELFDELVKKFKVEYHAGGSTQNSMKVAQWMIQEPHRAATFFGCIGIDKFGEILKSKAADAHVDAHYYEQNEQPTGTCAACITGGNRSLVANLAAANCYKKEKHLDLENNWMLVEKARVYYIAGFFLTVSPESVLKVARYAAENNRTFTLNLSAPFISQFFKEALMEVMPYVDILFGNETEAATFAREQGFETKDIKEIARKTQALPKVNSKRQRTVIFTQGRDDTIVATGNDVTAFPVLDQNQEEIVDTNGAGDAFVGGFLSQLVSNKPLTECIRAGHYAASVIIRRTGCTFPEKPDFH

`Cc1nc(N)c(-c2ccccc2)c(C#Cc2ccc(N(C)C)cc2)n1` came in with an IC50 greater than 1000 nM.
